From patent US7402548B2, “Benzoxazole compounds, process for producing the same and herbicides” (Kyoyu Agri Co., Ltd., priority 2000, dated 2008)

What was measured:
[1] = system: velvetleaf; assay: Foliar spread test for upland field; format: in vivo, Abutilon theophrasti; design: key: 0 = normal development, 5 = all killed (6 ranks vs. untreated); details: foliar spray, 500 ppm, 3 weeks, glass house 25° C.
How it was run: (§1)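 Plants grown about 2 weeks at 25 °C in volcanic ash soil were sprayed with wettable powder diluted to 500 ppm in water with 0.5% surfactant. After 3 weeks at 25 °C, damage was scored 0 (normal) to 5 (all killed) against untreated plants.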

[2] = system: annual bluegrass; assay: Foliar spread test for upland field; format: in vivo, Poa annua; design: key: 0 = normal development, 5 = all killed (6 ranks vs. untreated); details: foliar spray, 500 ppm, 3 weeks, glass house 25° C.
How it was run: as §1

[3] = system: Cyperus serotinus Rottb.; assay: Herbicidal test for paddy field; format: in vivo; details: 500 g/ha, dropwise addition to paddy water at 1.5 leaf stage of barnyard grass; glass house 25° C., 3 weeks; rank 0-5 vs non-treated district
Experimental: (§2) Wagner pots, each having an area of 1/5000 are, were packed with Ube soil (alluvial soil) and planted with seeds or tubers of young rice plant, barnyard grass, bulrush, Cyperus serotinus Rottb., arrowhead and monochoria. Then, the pots were filled with water to a depth of 3 cm.
(§3) Each wettable powder of the desired Compounds (I) shown in Tables 1 to 21, 24, 25, 28 and 29 prepared in accordance with Example 2 was diluted with water containing a surfactant (0.05%) and subjected to dropwise addition treatment by using pipet so that an effective concentration of the compound (I) in each herbicide became 500 g/ha at 1.5 leaf stage of barnyard grass.
(§4) These plants were controlled in a glass house at an average temperature of 25° C. for 3 weeks, and then herbicidal effects thereof were investigated.
(§5) The herbicidal effects are evaluated according to the following 6 ranks as compared with non-treated district. (0: normal development, 1: Less damaged, 2: Slightly damaged, 3: Moderately damaged, 4: Severely damaged, 5: All killed). Incidentally, “-” in the column means not investigated.

[4] = system: common lambsquarters; assay: Soil treatment test for upland field; format: in vivo, Chenopodium album; design: key: 0 = normal development, 5 = all killed; details: 500 g/ha, 3 weeks, glass house 25° C.
How it was run: (§6)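 Surface spray of freshly sown alluvial soil, 500 g/ha compound, water containing 0.05% surfactant. Visual 0–5 damage rating versus untreated after 3 weeks, glasshouse at 25° C average.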

[5] = system: common lambsquarters; assay: Foliar spread test for upland field; format: in vivo, Chenopodium album; design: key: 0 = normal development, 5 = all killed (6 ranks vs. untreated); details: foliar spray, 500 ppm, 3 weeks, glass house 25° C.
How it was run: as §1

[6] = system: morning glory; assay: Foliar spread test for upland field; format: in vivo, Ipomoea spps.; design: key: 0 = normal development, 5 = all killed (6 ranks vs. untreated); details: foliar spray, 500 ppm, 3 weeks, glass house 25° C.
How it was run: as §1

[7] = system: blackgrass; assay: Foliar spread test for upland field; format: in vivo, Alopecurus aegualis; design: key: 0 = normal development, 5 = all killed (6 ranks vs. untreated); details: foliar spray, 500 ppm, 3 weeks, glass house 25° C.
How it was run: as §1

[8] = system: bulrush; assay: Herbicidal test for paddy field; format: in vivo, Scrips juncoides; details: 500 g/ha, dropwise addition to paddy water at 1.5 leaf stage of barnyard grass; glass house 25° C., 3 weeks; rank 0-5 vs non-treated district
Experimental: as §2, §3, §4, §5

[9] = system: green foxtail; assay: Soil treatment test for upland field; format: in vivo, Setaria viridis; design: key: 0 = normal development, 5 = all killed; details: 500 g/ha, 3 weeks, glass house 25° C.
How it was run: as §6

[10] = system: barnyard grass; assay: Soil treatment test for upland field; format: in vivo, Eschinochloa crusgalli; design: key: 0 = normal development, 5 = all killed; details: 500 g/ha, 3 weeks, glass house 25° C.
How it was run: as §6

[11] = system: green foxtail; assay: Foliar spread test for upland field; format: in vivo, Setaria viridis; design: key: 0 = normal development, 5 = all killed (6 ranks vs. untreated); details: foliar spray, 500 ppm, 3 weeks, glass house 25° C.
How it was run: as §1

[12] = system: annual bluegrass; assay: Soil treatment test for upland field; format: in vivo, Poa annua; design: key: 0 = normal development, 5 = all killed; details: 500 g/ha, 3 weeks, glass house 25° C.
How it was run: as §6

[13] = system: morning glory; assay: Soil treatment test for upland field; format: in vivo, Ipomoea spps.; design: key: 0 = normal development, 5 = all killed; details: 500 g/ha, 3 weeks, glass house 25° C.
How it was run: as §6

[14] = system: velvetleaf; assay: Soil treatment test for upland field; format: in vivo, Abutilon theophrasti; design: key: 0 = normal development, 5 = all killed; details: 500 g/ha, 3 weeks, glass house 25° C.
How it was run: as §6

[15] = system: Large crabgrass; assay: Soil treatment test for upland field; format: in vivo, Digitaria adscendens; design: key: 0 = normal development, 5 = all killed; details: 500 g/ha, 3 weeks, glass house 25° C.
How it was run: as §6

[16] = system: barnyardgrjass; assay: Foliar spread test for upland field; format: in vivo, Eschinochloa crusgalli; design: key: 0 = normal development, 5 = all killed (6 ranks vs. untreated); details: foliar spray, 500 ppm, 3 weeks, glass house 25° C.
How it was run: as §1

[17] = system: Large crabgrass; assay: Foliar spread test for upland field; format: in vivo, Digitaria adscendens; design: key: 0 = normal development, 5 = all killed (6 ranks vs. untreated); details: foliar spray, 500 ppm, 3 weeks, glass house 25° C.
How it was run: as §1

[18] = system: livid amaranth; assay: Foliar spread test for upland field; format: in vivo, Amaranthus lividus; design: key: 0 = normal development, 5 = all killed (6 ranks vs. untreated); details: foliar spray, 500 ppm, 3 weeks, glass house 25° C.
How it was run: as §1

[19] = system: livid amaranth; assay: Soil treatment test for upland field; format: in vivo, Amaranthus lividus; design: key: 0 = normal development, 5 = all killed; details: 500 g/ha, 3 weeks, glass house 25° C.
How it was run: as §6

[20] = system: sugar beat; assay: Soil treatment test for upland field; format: in vivo; design: key: 0 = normal development, 5 = all killed; details: 500 g/ha, 3 weeks, glass house 25° C.
How it was run: as §6

[21] = system: wheat; assay: Soil treatment test for upland field; format: in vivo; design: key: 0 = normal development, 5 = all killed; details: 500 g/ha, 3 weeks, glass house 25° C.
How it was run: as §6

[22] = system: corn; assay: Soil treatment test for upland field; format: in vivo; design: key: 0 = normal development, 5 = all killed; details: 500 g/ha, 3 weeks, glass house 25° C.
How it was run: as §6

[23] = system: soybean; assay: Soil treatment test for upland field; format: in vivo; design: key: 0 = normal development, 5 = all killed; details: 500 g/ha, 3 weeks, glass house 25° C.
How it was run: as §6

[24] = system: solgum; assay: Soil treatment test for upland field; format: in vivo; design: key: 0 = normal development, 5 = all killed; details: 500 g/ha, 3 weeks, glass house 25° C.
How it was run: as §6

[25] = system: blackgrass; assay: Soil treatment test for upland field; format: in vivo, Alopecurus aegualis; design: key: 0 = normal development, 5 = all killed; details: 500 g/ha, 3 weeks, glass house 25° C.
How it was run: as §6

[26] = system: barnyard grass; assay: Herbicidal test for paddy field; format: in vivo, Eschinochloa crusgalli; details: 500 g/ha, dropwise addition to paddy water at 1.5 leaf stage of barnyard grass; glass house 25° C., 3 weeks; rank 0-5 vs non-treated district
Experimental: as §2, §3, §4, §5

[27] = system: sugar beat; assay: Foliar spread test for upland field; format: in vivo; design: key: 0 = normal development, 5 = all killed (6 ranks vs. untreated); details: foliar spray, 500 ppm, 3 weeks, glass house 25° C.
How it was run: as §1

[28] = system: wheat; assay: Foliar spread test for upland field; format: in vivo; design: key: 0 = normal development, 5 = all killed (6 ranks vs. untreated); details: foliar spray, 500 ppm, 3 weeks, glass house 25° C.
How it was run: as §1

[29] = system: cotton; assay: Foliar spread test for upland field; format: in vivo; design: key: 0 = normal development, 5 = all killed (6 ranks vs. untreated); details: foliar spray, 500 ppm, 3 weeks, glass house 25° C.
How it was run: as §1

[30] = system: corn; assay: Foliar spread test for upland field; format: in vivo; design: key: 0 = normal development, 5 = all killed (6 ranks vs. untreated); details: foliar spray, 500 ppm, 3 weeks, glass house 25° C.
How it was run: as §1

[31] = system: soybean; assay: Foliar spread test for upland field; format: in vivo; design: key: 0 = normal development, 5 = all killed (6 ranks vs. untreated); details: foliar spray, 500 ppm, 3 weeks, glass house 25° C.
How it was run: as §1

[32] = system: solgum; assay: Foliar spread test for upland field; format: in vivo; design: key: 0 = normal development, 5 = all killed (6 ranks vs. untreated); details: foliar spray, 500 ppm, 3 weeks, glass house 25° C.
How it was run: as §1

[33] = system: arrowhead; assay: Herbicidal test for paddy field; format: in vivo, Sagittaria pygmaea; details: 500 g/ha, dropwise addition to paddy water at 1.5 leaf stage of barnyard grass; glass house 25° C., 3 weeks; rank 0-5 vs non-treated district
Experimental: as §2, §3, §4, §5

[34] = system: Cassia obtusifolia; assay: Foliar spread test for upland field; format: in vivo; design: key: 0 = normal development, 5 = all killed; details: foliar spray, 500 ppm, 3 weeks, glass house 25° C.
Experimental: as §5
(§7) Wagner pots, each having an area of 1/5000 are, were packed with volcanic ash soil and then each seed of corn, soybean, cotton, wheat, solgum, sugar beat, Large crabgrass, barnyardgrjass, green foxtail, blackgrass, annual bluegrass, common lambsquarters, livid amaranth, velvetleaf, morning glory, Xanthium pensylvanicum and Cassia obtusifolia was planted, covered with soil and grown in a glass house at an average temperature of 25° C. for about 2 weeks.
(§8) Each wettable powder of the desired compounds (I) shown in Tables 1 to 21, 24, 25, 28 and 29 prepared in accordance with Example 2 was diluted to 500 ppm with water containing a surfactant (0.5%) and then uniformly sprayed on the above respective plants.
(§9) After these plants were controlled in a glass house at an average temperature of 25° C. for 3 weeks, the herbicidal effects thereof were investigated.
(§10) The herbicidal effects were evaluated according to the evaluation method described in the above (1).

[35] = system: Xanthium pensylvanicum; assay: Foliar spread test for upland field; format: in vivo; design: key: 0 = normal development, 5 = all killed; details: foliar spray, 500 ppm, 3 weeks, glass house 25° C.
Experimental: as §5, §7, §8, §9, §10

Compound | Effects Velvetleaf [1] | Effects Annual bluegrass [2] | Effects Cyperus serotinus Rottb. [3] | Effects Common lambsquarters [4] | Effects Common lambsquarters [5] | Effects Morning glory [6] | Effects Blackgrass [7] | Effects Bulrush [8] | Effects Green foxtail [9] | Effects Green foxtail [11] | Effects Barnyardgrass [16] | Effects Large crabgrass [17] | Effects Livid amaranth [18] | Effects Barnyardgrass [26] | Effects Sugar beat [27] | Effects Wheat [28] | Effects Sotton [29] | Effects Corn [30] | Effects Soybean [31] | Effects Solgum [32] | other results
CCC(=Cc1cccc(C(F)(F)F)c1)c1nc2cc(C#N)ccc2o1 [I-c-81] | 3 | 4 | 4 | 5 | 5 | 5 | 3 | 5 | 5 | 4 | 3 | 4 | 5 | 5 | 4 | 2 | 4 | 3 | 5 | 3 | Effects Barnyardgrass [10]: 5; Effects Annual bluegrass [12]: 5; Effects Morning glory [13]: 5; Effects Velvetleaf [14]: 5; Effects Large crabgrass [15]: 5; Effects Livid amaranth [19]: 5; Effects Sugar beat [20]: 5; Effects Wheat [21]: 3; Effects Corn [22]: 2; Effects Soybean [23]: 3; Effects Solgum [24]: 2; Effects Blackgrass [25]: 5
N#Cc1ccc2oc(-c3cccc(Oc4cccc(C(F)(F)F)c4)n3)nc2c1 [I-a-18] | 4 | 2 | 0 | – | 4 | 5 | 1 | 0 | – | 5 | 1 | 2 | 5 | 3 | 4 | 1 | 4 | 1 | 3 | 1 | Effects Arrowhead [33]: 0; Effects Sicklepod [34]: 5; Effects Common Cocklebur [35]: 4
CCC(=Cc1cccc(C(F)(F)F)c1)c1nc2cc(C#N)c(F)cc2o1 [I-c-137] | 4 | 4 | 2 | 5 | 5 | 5 | 3 | 4 | 5 | 4 | 3 | 4 | 5 | 4 | 4 | 2 | 4 | 3 | 5 | 2 | Effects Barnyardgrass [10]: 5; Effects Annual bluegrass [12]: 5; Effects Morning glory [13]: 5; Effects Velvetleaf [14]: 5; Effects Large crabgrass [15]: 5; Effects Livid amaranth [19]: 5; Effects Sugar beat [20]: 5; Effects Wheat [21]: 1; Effects Corn [22]: 2; Effects Soybean [23]: 3; Effects Solgum [24]: 2; Effects Blackgrass [25]: 5
CCC(=Cc1cccc(C(F)(F)F)c1)c1nc2cc(F)c(F)cc2o1 [I-c-111] | 3 | 4 | 1 | 5 | 5 | 5 | 4 | 4 | 5 | 4 | 3 | 4 | 5 | 5 | 4 | 3 | 4 | 3 | 5 | 4 | Effects Barnyardgrass [10]: 5; Effects Annual bluegrass [12]: 5; Effects Morning glory [13]: 4; Effects Velvetleaf [14]: 5; Effects Large crabgrass [15]: 5; Effects Livid amaranth [19]: 5; Effects Sugar beat [20]: 5; Effects Wheat [21]: 5; Effects Corn [22]: 2; Effects Soybean [23]: 5; Effects Solgum [24]: 3; Effects Blackgrass [25]: 5
CCCC(=Cc1cccc(C(F)(F)F)c1)c1nc2cc(C#N)c(F)cc2o1 [I-c-139] | 4 | 4 | 1 | 5 | 5 | 5 | 4 | 3 | 5 | 4 | 3 | 4 | 5 | 4 | 4 | 2 | 4 | 2 | 5 | 2 | Effects Barnyardgrass [10]: 5; Effects Annual bluegrass [12]: 5; Effects Morning glory [13]: 5; Effects Velvetleaf [14]: 5; Effects Large crabgrass [15]: 5; Effects Livid amaranth [19]: 5; Effects Sugar beat [20]: 5; Effects Wheat [21]: 2; Effects Corn [22]: 2; Effects Soybean [23]: 5; Effects Solgum [24]: 3; Effects Blackgrass [25]: 5
